Columns and labels:
Test in all cases: DHODH Inhibition Assay
[1] = biological target: T1, Dihydroorotate dehydrogenase (quinone), mitochondrial [100-517] (Plasmodium berghei (strain Anka), UniProt A0A509AEH5)
T1 construct: 100-517
T1 sequence (A0A509AEH5 whole entry): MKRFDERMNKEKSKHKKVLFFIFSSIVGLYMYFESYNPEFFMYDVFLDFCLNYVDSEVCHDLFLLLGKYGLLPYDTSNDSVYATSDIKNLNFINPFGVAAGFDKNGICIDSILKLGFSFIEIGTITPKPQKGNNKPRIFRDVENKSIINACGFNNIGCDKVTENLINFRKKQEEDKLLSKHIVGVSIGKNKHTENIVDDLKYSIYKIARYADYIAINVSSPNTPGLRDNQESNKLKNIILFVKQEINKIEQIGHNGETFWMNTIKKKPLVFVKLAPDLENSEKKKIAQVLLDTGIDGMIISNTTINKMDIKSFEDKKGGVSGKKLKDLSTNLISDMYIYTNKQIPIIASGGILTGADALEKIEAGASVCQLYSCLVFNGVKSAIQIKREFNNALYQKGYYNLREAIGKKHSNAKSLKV
Experimental: (§1) The assays were carried out by using a colorimetric DCIP method, which uses the colorimetric reagent 2, 6-dichlorophenolindophenol as the final electron acceptor. DCIP reduction is stoichiometrically equivalent to oxidation of dihydroorotate. Changes in absorbance were quantified on a plate reader and data were analyzed to measure the reduction of DCIP as a decrease in absorbance at 600 nm.

[2] = biological target: T2, Dihydroorotate dehydrogenase (quinone), mitochondrial (Plasmodium falciparum (isolate 3D7), UniProt Q08210)
T2 sequence (Q08210 whole entry): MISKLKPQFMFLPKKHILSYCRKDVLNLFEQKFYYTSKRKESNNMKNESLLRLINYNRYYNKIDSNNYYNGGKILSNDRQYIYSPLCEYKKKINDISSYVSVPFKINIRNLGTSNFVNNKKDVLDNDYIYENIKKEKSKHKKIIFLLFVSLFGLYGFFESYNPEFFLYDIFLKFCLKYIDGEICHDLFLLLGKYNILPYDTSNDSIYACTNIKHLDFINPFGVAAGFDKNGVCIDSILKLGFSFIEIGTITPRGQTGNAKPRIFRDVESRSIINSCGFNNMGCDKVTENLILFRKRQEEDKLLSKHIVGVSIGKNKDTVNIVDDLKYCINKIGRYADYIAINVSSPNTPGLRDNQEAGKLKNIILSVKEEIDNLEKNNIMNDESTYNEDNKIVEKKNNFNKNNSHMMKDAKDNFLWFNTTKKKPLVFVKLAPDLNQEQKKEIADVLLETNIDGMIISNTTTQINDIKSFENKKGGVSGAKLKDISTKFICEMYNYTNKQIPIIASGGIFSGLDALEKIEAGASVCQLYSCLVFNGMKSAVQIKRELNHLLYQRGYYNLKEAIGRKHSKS
Experimental: as §1

[3] = biological target: T3, Dihydroorotate dehydrogenase (quinone), mitochondrial [30-395] (Homo sapiens, UniProt Q02127)
T3 construct: 30-395
T3 sequence (Q02127 30-395): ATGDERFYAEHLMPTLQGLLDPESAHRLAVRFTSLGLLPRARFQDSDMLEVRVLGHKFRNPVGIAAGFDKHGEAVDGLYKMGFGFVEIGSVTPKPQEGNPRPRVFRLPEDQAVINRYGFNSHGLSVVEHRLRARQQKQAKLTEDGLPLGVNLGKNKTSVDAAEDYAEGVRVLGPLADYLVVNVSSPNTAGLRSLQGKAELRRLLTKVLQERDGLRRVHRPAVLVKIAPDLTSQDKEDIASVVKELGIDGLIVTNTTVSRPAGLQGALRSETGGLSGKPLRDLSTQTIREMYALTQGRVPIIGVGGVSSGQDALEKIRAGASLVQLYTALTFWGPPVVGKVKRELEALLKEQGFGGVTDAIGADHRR
Experimental: as §1

Row | Structure (SMILES) | IC50 [1] [µM] | IC50 ([2]; pH 8, 20 °C) [µM] | IC50 [2] [µM] | IC50 [3] [µM]
1 | Cc1cccc(Nc2cc(C)nc3ncnn23)c1 [5-methyl-N-(3-methylphenyl)-[1,2,4]triazolo[1,5-a]pyrimidin-7-amine] | > 100 | – | – | –
2 | Cc1cc(Nc2ccccc2C#N)n2ncnc2n1 [2-({5-methyl-[1,2,4]triazolo[1,5-a]pyrimidin-7-yl}amino)benzonitrile] | > 100 | > 100 | – | –
3 | Cc1cc(Nc2c(F)cc(F)cc2F)n2ncnc2n1 [5-methyl-N-(2,4,6-trifluorophenyl)-[1,2,4]triazolo[1,5-a]pyrimidin-7-amine] | > 100 | > 100 | – | –
4 | Cc1cc(Nc2ccc(F)c(F)c2F)n2ncnc2n1 [5-methyl-N-(2,3,4-trifluorophenyl)-[1,2,4]triazolo[1,5-a]pyrimidin-7-amine] | > 100 | – | – | –
5 | Cc1cc(Nc2cc(F)c(F)cc2F)n2ncnc2n1 [5-methyl-N-(2,4,5-trifluorophenyl)-[1,2,4]triazolo[1,5-a]pyrimidin-7-amine] | > 100 | – | – | –
6 | Cc1cc(Nc2cc(F)ccc2F)n2ncnc2n1 [N-(2,5-difluorophenyl)-5-methyl-[1,2,4]triazolo[1,5-a]pyrimidin-7-amine] | > 100 | > 50 | – | –
7 | Cc1cc(Nc2ccccc2C(F)(F)F)n2ncnc2n1 [5-methyl-N-[2-(trifluoromethyl)phenyl]-[1,2,4]triazolo[1,5-a]pyrimidin-7-amine] | > 100 | > 100 | – | –
8 | Cc1cc(Nc2c(F)c(F)c(F)c(F)c2F)n2ncnc2n1 [5-methyl-N-(2,3,4,5,6-pentafluorophenyl)-[1,2,4]triazolo[1,5-a]pyrimidin-7-amine] | > 100 | – | > 100 | –
9 | Cc1cc(Nc2ccc3ccccc3c2)n2ncnc2n1 [JMC521864 Compund DSM1] | – | – | – | > 200
10 | Cc1cc(Nc2cccc(F)c2)n2ncnc2n1 [N-(3-fluorophenyl)-5-methyl-[1,2,4]triazolo[1,5-a]pyrimidin-7-amine] | > 100 | – | – | –
11 | Cc1cc(Nc2ccccc2F)n2ncnc2n1 [N-(2-fluorophenyl)-5-methyl-[1,2,4]triazolo[1,5-a]pyrimidin-7-amine] | > 100 | > 100 | – | –
12 | Cc1cc(Nc2ccc(Cc3ccccc3)cc2)n2ncnc2n1 [N-(4-benzylphenyl)-5-methyl-[1,2,4]triazolo[1,5-a]pyrimidin-7-amine] | > 100 | – | – | –
13 | Cc1ccc(Nc2cc(C)nc3ncnn23)c(F)c1 [N-(2-fluoro-4-methylphenyl)-5-methyl-[1,2,4]triazolo[1,5-a]pyrimidin-7-amine] | > 100 | – | – | –
14 | Cc1cc(Nc2ccc(F)cc2)n2ncnc2n1 [N-(4-fluorophenyl)-5-methyl-[1,2,4]triazolo[1,5-a]pyrimidin-7-amine] | > 100 | – | – | –
15 | Cc1cc(Nc2c(F)cccc2F)n2ncnc2n1 [N-(2,6-difluorophenyl)-5-methyl-[1,2,4]triazolo[1,5-a]pyrimidin-7-amine] | > 100 | > 100 | – | –
16 | Cc1cc(Nc2cc(C(F)(F)F)cc(C(F)(F)F)c2)n2ncnc2n1 [N-[3,5-bis(trifluoromethyl)phenyl]-5-methyl-[1,2,4]triazolo[1,5-a]pyrimidin-7-amine] | > 100 | – | > 100 | –
17 | Cc1cc(Nc2c(F)c(F)cc(F)c2F)n2ncnc2n1 [5-methyl-N-(2,3,5,6-tetrafluorophenyl)-[1,2,4]triazolo[1,5-a]pyrimidin-7-amine] | > 100 | > 100 | – | –
18 | Cc1cc(Nc2ccccc2C)n2ncnc2n1 [5-methyl-N-(2-methylphenyl)-[1,2,4]triazolo[1,5-a]pyrimidin-7-amine] | > 100 | > 100 | – | –
19 | COc1ccc(Nc2cc(C)nc3ncnn23)cc1 [N-(4-methoxyphenyl)-5-methyl-[1,2,4]triazolo[1,5-a]pyrimidin-7-amine] | > 50 | – | – | –
20 | Cc1cc(Nc2ccccc2Cl)n2ncnc2n1 [N-(2-chlorophenyl)-5-methyl-[1,2,4]triazolo[1,5-a]pyrimidin-7-amine] | > 100 | > 100 | – | –
21 | Cc1cc(Nc2ccccc2)n2ncnc2n1 [JMC521864 Compund DSM12] | > 10 | > 200 | – | > 200
22 | Cc1cc(Nc2cccc(F)c2F)n2ncnc2n1 [N-(2,3-difluorophenyl)-5-methyl-[1,2,4]triazolo[1,5-a]pyrimidin-7-amine] | > 100 | – | – | –
23 | Cc1cc(Nc2ccc3cc4ccccc4cc3c2)n2ncnc2n1 [N-(anthracen-2-yl)-5-methyl-[1,2,4]triazolo[1,5-a]pyrimidin-7-amine] | 3.7 | – | – | > 200

— BindingDB's records for doi:10.1021/jm801343r (University of Washington At Seattle, 2009)
